From patent publication US20200024246A1, “POGOSTONE DERIVATIVES AND METHODS OF USING THE SAME” (Hamyard Associates LLC, priority 2018, published 2020)
Entries after “also recorded” stand apart in the source; their conditions may differ.

Key:
adult, female mosquitoes = assay: Topical application on adult female mosquitoes (24-h mortality, 1-h knockdown); type: in vivo, mosquito
[1] = tested on: Western corn rootworm larvae; assay: Seed treatment testing: rootworm survival (FIG. 2A); type: in vivo; details: seeds coated with compound; 1 week after introduction of larvae
Experimental: (§1) Corn seeds used were a non-transgenic type strain of corn to prevent confounding results. Germination typically occurred between 2-4 days after moistening.
(§2) Seed coating was accomplished by placing 20 g of corn seeds or soybeans into a container with approximately 1 mL of a 1:5 Elmer's glue:water solution with a small amount of Triton-X100™ (present 100 μL/5 mL). For solid compounds, 0.25 g of compound was subsequently introduced into the container. This mixture of seeds, Elmer's Glue/water/Triton-X 100™ solution, and active compound was mixed thoroughly until seeds were coated with the active ingredient.
(§3) For each treatment, 0.25 g of liquid compound was dissolved in 5 mL of hexane. 0.25 g of Hi-Sil 233 silica gel was introduced into this mixture of hexane and active ingredient. The solvent was blown-off using a rotary evaporator, allowing for the compound to adsorb to the silica gel. This 0.5 g of silica gel:active ingredient was then used as the solid material used for coating the seeds. The seeds were then coated with the same method used for solid compound.
(§4) Three corn seeds coated in pogostone derivative treatments were germinated in small, 2-oz. […] Germination of seedlings was also recorded at the end of the assay by counting the total number of seeds that produced roots out of the 3 seeds in each container/replicate and recorded as total percentage germination. […]

corn seeds = assay: Seed treatment testing: survival/germination of treated corn seeds (FIG. 2B); type: in vivo; details: seeds coated with compound; 1 week after introduction of larvae
Experimental: as §1, §2, §3, §4

house flies [2] = assay: Spray-cup testing, house flies (FIG. 3a); type: in vivo, house fly; details: Formula 13 2.5% w/v in water vs thymol 2.5% or 10% w/v
Experimental: (§5) 10 adults of various arthropod species used for this characterization were placed into 8 oz. ice cream cups with tulle placed over the top to prevent the escape of arthropods from the container. Test formulations were added to spray bottles ([…]™) and applied at the same distance and spray number to eliminate variation between manufacturer spray bottles. For all experiments, spray bottles were set to mist in order to prevent excess formulation from accumulating in the cups. […] Mortality was recorded at 1 min, 5 min, 10 min, 15 min, 30 min, 4 hours, and 8 hours for each replicate. A minimum of 3 replicates of 10 arthropods/cup/replicate were performed for each formulation. Data was modeled using a logarithmic regression to show the speed-to-kill of each formulation and highlight differences among treatment groups. Different spray amounts were used for each arthropod, depending on susceptibility, e.g.:
House flies=8 sprays, 3 in […]

German roaches = assay: Spray-cup testing, German roaches (FIG. 3b); type: in vivo, German roach; details: Formula 13 2.5% w/v in water vs thymol 2.5% or 10% w/v
Experimental: as §5
German roaches=10 sprays, 3 in […]

soybean aphids = assay: Leaf spray/dip test, soybean aphids (FIG. 4a); type: in vivo, soybean aphid; details: soybean aphids on dipped soybean leaves, 48 hours
Experimental: (§6) Soybean leaves were removed from a previously uninfested plant and dipped in solution containing water, various concentrations of compounds to be screened, and 0.5% industrial emulsifier. Leaves were allowed to air dry for 30 minutes before the beginning of the assay to assure excess formulation was not present on the treated leaves. Ten two-spotted spider mites or ten soybean aphid adults were gently placed on the top surface of the treated leaves. A minimum of three replicates were performed for each formulation tested in this experiment. Mortality of aphids or spider mites was recorded at 48 hours after their introduction to treated leaves. All treatments were compared to a water+emulsifier control and a thymol+emulsifier control. Data was presented as the average mortality across all replicates along with the standard error of the mean.

two-spotted spider mites = assay: Leaf spray/dip test, spider mites (FIG. 4b); type: in vivo, two-spotted spider mite; details: spider mites on dipped soybean leaves, 48 hours
Experimental: as §6

[3] = tested on: Giant foxtail (Setaria faberi); assay: Soil drench herbicidal test, foxtail; type: in vivo; details: for % mortality: Foxtail, Rep 1 and 2
Experimental: Dandelion (Taraxacum officinale) seeds were obtained from the Department of Agronomy at Iowa State University. Individual seeds were sown for each pot (6″ wide×4.5″ deep) with approximately 800 mL of soil for each plan. Only plants that germinated were used for the study. Plants were treated 1-2 weeks post emergence. Plants were watered every 2-3 days as needed. Giant foxtail (Setaria faberi) seeds were obtained from the Department of Agronomy at Iowa State University. Three seeds were sown for each pot (6″ wide×4.5″ deep) with approximately 800 mL of soil for each plan. Only plants that germinated were used for the study. Plants were treated 1-2 weeks post emergence. Plants were watered every 2-3 days as needed.
Formulations of the various active ingredients were created using the disclosed pogostone derivatives and Triton-X 100 to aid in the solvation of the active ingredient. Formulations consisted of 0.5% active ingredient by weight. […] 40 mL of formulation (either […] active ingredient) was applied to each pot containing approximately 3-5 plants per pot at 2-3 weeks after emergence. Observations were performed 3 days and 2 weeks after soil drench to determine the effects of the treatments on the various types and stages of plants. Phytotoxicity is reported as percentage of total plants treated compared to a control treatment that was exposed to a similar formulation (without the active monoterpenoid derivatives). Technical grade 2,4-dichlorophenoxyacetic acid (2,4-D) was used as the commercial comparison for phytotoxicity. For its solvation, potassium hydroxide was introduced at a 1:1 molar ratio with 2,4-D to ensure this molecule would adequately dissolve in water.

house flies [4] = assay: Topical application on house flies; details: House Fly Toxicity; topical
[5] = tested on: Pyrethroid-resistant strain of Aedes aegypti (Puerto Rican strain); assay: Toxicity to insecticide-resistant mosquitoes (FIG. 1); details: dose response curves FIG. 1

`CC(C)CCC(=O)c1c(O)c2ccccc2oc1=O` [Formula 13] was tested, and the ED50 (adult, female mosquitoes; topical, 1 h, read-out: KD50 (ug/g mosquito)) was 182 mg/kg, the LD50 (adult, female mosquitoes; topical, 24 h, read-out: LD50 (ug/g mosquito)) was 119 mg/kg and the “insecticidal properties compared with natural pogostone, natural pyrethrins or terpenoids” value (adult, female mosquitoes; words, refers to Table 1) was “possessed better insecticidal properties than natural pogostone”. For the same compound, the “western corn rootworm mortality” value [1] was “significant western corn rootworm mortality”, the “phytotoxicity to treated corn seeds” value (corn seeds) was “did not; also recorded: do not cause phytotoxicity” and the “efficacy (mortality) compared with thymol” value (house flies [2]) was “outperformed thymol at all time points; also recorded: surpassed the efficacy of thymol at both an equal or higher concentration”. For the same compound, the “efficacy (mortality) compared with thymol” value (German roaches) was “outperformed thymol at all time points; also recorded: surpassed the efficacy of thymol at both an equal or higher concentration”, the “mortality compared with thymol or control” value (soybean aphids) was “performed better than thymol; also recorded: significantly more effective at killing soybean aphids compared to thymol or a control” and the “mortality compared with thymol or control” value (two-spotted spider mites) was “performed better than thymol”. The phytotoxicity in foxtail ([3]; 40 mL of 0.5% soil drench, FIG. 12, words) was “significant phytotoxicity”, the “% mortality” value ([3]; 2 weeks after soil drench - 40 mL of 0.5% solution) was 100% and the “% mortality” value ([3]; 3 days after soil drench - 40 mL of 0.5% solution) was 50%. The “LD50 (ug/g fly)” value (house flies [4]) was 5950 ug/g fly and the “insecticidal capacity compared with natural pyrethrins” value [5] was “outperformed natural pyrethrins”.
